From patent publication US9829495B2, “Method for differentially diagnosing ACTH-dependent Cushing's syndrome” (Corcept Therapeutics, Inc., priority 2015, dated 2017)

System: ACTH from the pituitary gland
Test: ACTH stimulation after oral mifepristone in persons with normal HPA function
Format: in vivo, human
Details: oral dose of 300-1500 mg; persons having normal hypothalamic-pituitary-adrenal axis (HPA) function
Description: GRA is administered at a dosage that is sufficient to increase ACTH in the pituitary gland by at least two fold in persons with normal HPA functions. In one embodiment, the GRA is mifepristone. In one embodiment, mifepristone is administered orally to the patient. […] In one embodiment, the GRA is administered at 11 pm the night before IPSS. Following the diagnosis of ACTH dependent Cushing's syndrome, they then undergo IPSS to identify the source of abnormal ACTH secretion, i.e., whether it is pituitary or ectopic. […] Another 0.018 microcatherter is inserted into the peripheral jugular vein. A 5,000 unit bolus of heparin is administered to the veins to prevent venous sinus thrombosis.

SMILES: CC#C[C@]1(O)CC[C@H]2[C@@H]3CCC4=CC(=O)CCC4=C3[C@@H](c3ccc(N(C)C)cc3)C[C@@]21C [mifepristone, 17-β-hydrox-11-β-(4-dimethyl-aminophenyl)17-α-(1-propynyl)estra-4,9-dien-3-one]
- increase ACTH from the pituitary gland: at least two-fold
